In US20250000863A1, “COMBINATION THERAPIES OF KRAS G12D INHIBITORS WITH SOS1 INHIBITORS” (MIRATI THERAPEUTICS, INC., priority 2021, published 2025):

System: AsPC-1 cells
Assay: AsPC-1 TGI-70 xenograft tumor volume study
Type: in vivo, nude/nude mice
Conditions: for Average Tumor Volumes: MRTX0902 50 mg/kg BID daily, alone or combined, 5 mice per group
Text: Experimental Procedures. 20 nude/nude mice were inoculated with AsPC-1 cells in the right hind flank. When the tumors reached ˜200 mm^3 four treatment groups were established with five mice per group.

SMILES	tumor growth inhibition (Day 13, MRTX0902 50 mg/kg BID daily as a single agent) [%]	Average Tumor Volumes (Study Day 1, MRTX1133 30 mg/kg BID daily) [mm^3]	Average Tumor Volumes (Study Day 6, MRTX1133 30 mg/kg BID daily) [mm^3]	Average Tumor Volumes (Study Day 9, MRTX1133 30 mg/kg BID daily) [mm^3]	Average Tumor Volumes (Study Day 13, MRTX1133 30 mg/kg BID daily) [mm^3]	Average Tumor Volumes (Study Day 16, MRTX1133 30 mg/kg BID daily) [mm^3]	Average Tumor Volumes (Study Day 20, MRTX1133 30 mg/kg BID daily) [mm^3]	Average Tumor Volumes (Study Day 23, MRTX1133 30 mg/kg BID daily) [mm^3]	tumor regression (Day 13, MRTX1133 30 mg/kg BID daily, alone or with MRTX0902 twice daily) [%]
Cc1c(C#N)cccc1[C@@H](C)Nc1nnc(C)c2cnc(N3CCOCC3)cc12 [MRTX0902]	26	194.8	215.066	220.892	262.374	316.164	387.59	480.782	–
C#Cc1c(F)ccc2cc(O)cc(-c3ncc4c(N5C[C@H]6CC[C@@H](C5)N6)nc(OC[C@@]56CCCN5C[C@H](F)C6)nc4c3F)c12 [MRTX1133, 4-(4-((1R,5S)-3,8-diazabicyclo[3.2.1]octan-3-yl)-8-fluoro-2-(((2R,7aS)-2-fluorohexahydro-1H-pyrrolizin-7a-yl)methoxy)pyrido[4,3-d]pyrimidin-7-yl)-5-ethynyl-6-fluoronaphthalen-2-ol]	–	–	–	–	–	–	–	–	26
